The record followed here is patent US20240360146A1, “BRUTON'S TYROSINE KINASE AND MUTANT DEGRADER, COMPOSITION AND APPLICATION THEREOF” (HANGZHOU HEALZEN THERAPEUTICS CO., LTD., priority 2021, published 2024).

For this assay, the target named is T1, BTK (Homo sapiens, UniProt Q06187).
T1 construct: endogenous in cells; host or cells: Mino cells
The experiment in a line: BTK degradation activity test in Mino cells. The class given is cell-based. As to conditions: 16 h incubation, Western blot or Elisa. The method in brief: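 Mino cells treated with a concentration series of compound for 16 h, then lysed; total protein by BCA. BTK quantified by Western blot or ELISA, degradation rate calculated against blank control, and DC50 fitted from the degradation curve.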
(In general: A western blot detects proteins with antibodies after separation by electrophoresis.)

What is called DC50 is the midpoint of the concentration-degradation curve. Low readings indicate a more potent degrader, high ones a less potent degrader.

T1 sequence (Q06187 whole entry): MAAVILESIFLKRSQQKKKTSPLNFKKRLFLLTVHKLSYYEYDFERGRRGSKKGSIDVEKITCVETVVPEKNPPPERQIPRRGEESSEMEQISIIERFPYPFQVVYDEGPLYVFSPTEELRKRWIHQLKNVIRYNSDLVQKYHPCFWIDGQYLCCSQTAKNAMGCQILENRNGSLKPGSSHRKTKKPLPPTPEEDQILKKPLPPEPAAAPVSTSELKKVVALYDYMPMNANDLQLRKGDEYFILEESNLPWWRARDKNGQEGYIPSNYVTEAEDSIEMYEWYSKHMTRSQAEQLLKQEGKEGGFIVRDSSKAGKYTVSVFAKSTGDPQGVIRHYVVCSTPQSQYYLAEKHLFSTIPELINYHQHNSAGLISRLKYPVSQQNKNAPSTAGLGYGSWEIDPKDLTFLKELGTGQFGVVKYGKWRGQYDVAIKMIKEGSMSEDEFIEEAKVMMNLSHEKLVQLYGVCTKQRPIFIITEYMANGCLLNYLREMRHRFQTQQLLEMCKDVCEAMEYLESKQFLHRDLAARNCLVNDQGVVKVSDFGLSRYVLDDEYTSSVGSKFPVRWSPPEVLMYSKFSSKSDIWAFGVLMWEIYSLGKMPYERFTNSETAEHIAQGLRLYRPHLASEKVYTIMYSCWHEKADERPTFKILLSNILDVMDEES

`CN1CCN([C@@H]2CCCN(c3nnc(C(N)=O)c(Nc4ccc(N5CCN(CC6CCN(c7ccc8c(C9CCC(=O)NC9=O)nn(C)c8n7)C6)CC5)c(F)c4)n3)C2)C1=O` (stereo partly drawn) [Compound 214, 5-((4-(4-((1-(3-(2,6-dioxopiperidin-3-yl)-1-methyl-H-pyrazolo[3,4-b]pyridin-6-yl)pyrrolidin-3-yl)methyl)piperazin-1-yl)-3-fluorophenyl)amino)-3-((R)-3-(3-methyl-2-oxoimidazolidin-1-yl)piperidin-1-yl)-1,2,4-triazin-6-carboxamide] showed a 50% degradation concentration (DC50) of less than 1 nM. For `CN1CCN([C@@H]2CCCN(c3nnc(C(N)=O)c(Nc4ccc(N5CCN(CC6CCN(c7ccc8c(C9CCC(=O)NC9=O)nn(C)c8n7)CC6)CC5)c(F)c4)n3)C2)C1=O` (stereo partly drawn) [Compound 215, 5-((4-(4-((1-(3-(2,6-dioxopiperidin-3-yl)-1-methyl-1H-pyrazolyl[3,4-b]pyridin-6-yl)piperidin-4-yl)methyl)piperazin-1-yl)-3-fluorophenyl)amino)-3-((R)-3-(3-methyl-2-oxoimidazolidin-1-yl)piperidin-1-yl)-1,2,4-triazin-6-carboxamide] the value was less than 1 nM; for `CN1CCN([C@@H]2CCCN(c3nnc(C(N)=O)c(Nc4ccc(N5CCN(CC6CCN(c7cccc8c(C9CCC(=O)NC9=O)nn(C)c78)C6)CC5)c(F)c4)n3)C2)C1=O` (stereo partly drawn) [Compound 216, 5-((4-(4-((1-(3-(2,6-dioxopiperidin-3-yl)-1-methyl-1H-indazol-7-yl)pyrrolidin-3-yl)methyl)piperazin-1-yl)-3-fluorophenyl)amino)-3-((R)-3-(3-methyl-2-oxoimidazolidin-1-yl)piperidin-1-yl)-1,2,4-triazin-6-carboxamide], less than 1 nM; for `CN1CCN([C@@H]2CCCN(c3nnc(C(N)=O)c(Nc4ccc(N5CCN(CC6CCN(c7cccc8c(C9CCC(=O)NC9=O)nn(C)c78)CC6)CC5)c(F)c4)n3)C2)C1=O` (stereo partly drawn) [Compound 217, 5-((4-(4-((1-(3-(2,6-dioxopiperidin-3-yl)-1-methyl-H-indazol-7-yl)piperidin-4-yl)methyl)piperazin-1-yl)-3-fluorophenyl)amino)-3-((R)-3-(3-methyl-2-oxoimidazolidin-1-yl)piperidin-1-yl)-1,2,4-triazin-6-carboxamide], less than 1 nM.

Consider `CN1CCN([C@@H]2CCCN(c3nnc(C(N)=O)c(Nc4ccc(N5CCN(CC6CCN(c7ccc8c9c([nH]c8c7)C(=O)N(C7CCC(=O)NC7=O)C9)C6)CC5)c(F)c4)n3)C2)C1=O` (stereo partly drawn) [Compound 220, 5-((4-(4-((1-(2-(2,6-dioxopiperidin-3-yl)-3-oxo-1,2,3,4-tetrahydropyrrolo[3,4-b]indol-6-yl)pyrrolidin-3-yl)methyl)piperazin-1-yl)-3-fluorophenyl)amino)-3-((R)-3-(3-methyl-2-oxoimidazolidin-1-yl)piperidin-1-yl)-1,2,4-triazin-6-carboxamide], for which the 50% degradation concentration (DC50) is less than 1 nM. The result for `CN1CCN([C@@H]2CCCN(c3nnc(C(N)=O)c(Nc4ccc(N5CCN(CC6CCN(c7ccc8c9c(oc8c7)C(=O)N(C7CCC(=O)NC7=O)C9)C6)CC5)c(F)c4)n3)C2)C1=O` (stereo partly drawn) [Compound 221, 5-((4-(4-((1-(2-(2,6-dioxopiperidin-3-yl)-3-oxo-2,3-dihydro-H-benzofuro[2,3-c]pyrrol-6-yl)pyrrolidin-3-yl)methyl)piperazin-1-yl)-3-fluorophenyl)amino)-3-((R)-3-(3-methyl-2-oxoimidazolidin-1-yl)piperidin-1-yl)-1,2,4-triazin-6-carboxamide] reads less than 1 nM; that for `CN1CCN([C@@H]2CCCN(c3nnc(C(N)=O)c(Nc4ccc(N5CCN(C#Cc6ccc(C(=O)NC7CCC(=O)NC7=O)c(F)c6)CC5)c(F)c4)n3)C2)C1=O` (stereo partly drawn) [Compound 225, 5-((4-(4-((4-((2,6-dioxopiperidin-3-yl)carbamoyl)-3-fluorophenyl)ethynyl)piperazin-1-yl)-3-fluorophenyl)amino)-3-((R)-3-(3-methyl-2-oxoimidazolidin-1-yl)piperidin-1-yl)-1,2,4-triazin-6-carboxamide], less than 1 nM. The result for `Cc1cc(C#CCN2CCN(c3ccc(Nc4nc(N5CCC[C@@H](N6CCN(C)C6=O)C5)nnc4C(N)=O)cc3F)CC2)ccc1C(=O)NC1CCC(=O)NC1=O` (stereo partly drawn) [Compound 226, 5-((4-(4-(3-(4-((2,6-dioxopiperidin-3-yl)carbamoyl)-3-methylphenyl)propan-2-yn-1-yl)piperazin-1-yl)-3-fluorophenyl)amino)-3-((R)-3-(3-methyl-2-oxoimidazolidin-1-yl)piperidin-1-yl)-1,2,4-triazin-6-carboxamide] reads less than 1 nM. For `CN1CCN([C@@H]2CCCN(c3nnc(C(N)=O)c(Nc4ccc(N5CCN(CC#Cc6ccc(NC7CCC(=O)NC7=O)c(F)c6)CC5)c(F)c4)n3)C2)C1=O` (stereo partly drawn) [Compound 228, 5-((4-(4-(3-(4-((2,6-dioxopiperidin-3-yl)amino)-3-fluorophenyl)propan-2-yn-1-yl)piperazin-1-yl)-3-fluorophenyl)amino)-3-((R)-3-(3-methyl-2-oxoimidazolidin-1-yl)piperidin-1-yl)-1,2,4-triazin-6-carboxamide] the value was less than 1 nM. `CN1CCN([C@@H]2CCCN(c3nnc(C(N)=O)c(Nc4ccc(N5CCN(CC#Cc6ccc(NC7CCC(=O)NC7=O)c7ocnc67)CC5)c(F)c4)n3)C2)C1=O` (stereo partly drawn) [Compound 229, 5-((4-(4-(3-(7-((2,6-dioxopiperidin-3-yl)amino)benzo[d]oxazol-4-yl)propan-2-yn-1-yl)piperazin-1-yl)-3-fluorophenyl)amino)-3-((R)-3-(3-methyl-2-oxoimidazolidin-1-yl)piperidin-1-yl)-1,2,4-triazin-6-carboxamide]: the DC50 was less than 1 nM. The result for `CN1CCN([C@@H]2CCCN(c3nnc(C(N)=O)c(Nc4ccc(N5CCN(CC#Cc6ccc(C(=O)NC7CCC(=O)NC7=O)s6)CC5)c(F)c4)n3)C2)C1=O` (stereo partly drawn) [Compound 230, 5-((4-(4-(3-(5-((2,6-dioxopiperidin-3-yl)carbamoyl)thiophen-2-yl)propan-2-yn-1-yl)piperazin-1-yl)-3-fluorophenyl)amino)-3-((R)-3-(3-methyl-2-oxoimidazolidin-1-yl)piperidin-1-yl)-1,2,4-triazin-6-carboxamide] reads less than 1 nM; that for `CN1CCN([C@@H]2CCCN(c3nnc(C(N)=O)c(Nc4cc(F)c5c(c4)CCN(CC4CCN(c6ccc7c(c6)C(=O)N(C6CCC(=O)NC6=O)C7=O)CC4)CC5)n3)C2)C1=O` (stereo partly drawn) [Compound 231, 5-((3-((1-(2-(2,6-dioxopiperidin-3-yl)-1,3-dioxoisoindolin-5-yl)piperidin-4-yl)methyl)-9-fluoro-2,3,4,5-tetrahydro-1H-benzo[d]azepin-7-yl)amino)-3-((R)-3-(3-methyl-2-oxoimidazolidin-1-yl)piperidin-1-yl)-1,2,4-triazin-6-carboxamide], less than 1 nM.

`CN1CCN([C@@H]2CCCN(c3nnc(C(N)=O)c(Nc4ccc(N5CCN(CC6CCN(c7ccc(N8CCC(=O)NC8=O)c(C(N)=O)c7)CC6)CC5)c(F)c4)n3)C2)C1=O` [Compound 233, (R)-5-((4-(4-((1-(3-carbamoyl-4-(2,4-dioxotetrahydropyrimidin-1(2H)-yl)phenyl)piperidin-4-yl)methyl)piperazin-1-yl)-3-fluorophenyl)amino)-3-(3-(3-methyl-2-oxoimidazolidin-1-yl)piperidin-1-yl)-1,2,4-triazin-6-carboxamide] returned a DC50 of less than 1 nM. For `CN1CCN([C@@H]2CCCN(c3nnc(C(N)=O)c(Nc4ccc(N5CCN(CC6CCN(c7ccc(N8CCC(=O)NC8=O)cc7)CC6)C(=O)C5)c(F)c4)n3)C2)C1=O` [Compound 235, (R)-5-((4-(4-((1-(4-(2,4-dioxotetrahydropyrimidin-1(2H)-yl)phenyl)piperidin-4-yl)methyl)-3-oxopiperazin-1-yl)-3-fluorophenyl)amino)-3-(3-(3-methyl-2-oxoimidazolidin-1-yl)piperidin-1-yl)-1,2,4-triazin-6-carboxamide] the value was less than 1 nM; for `Cc1cc(N2CCC(CN3CCC(c4ccc(Nc5nc(N6CCC[C@@H](N7CCN(C)C7=O)C6)nnc5C(N)=O)cc4CO)CC3)CC2)ccc1N1CCC(=O)NC1=O` [Compound 237, (R)-5-((4-(1-((1-(4-(2,4-dioxotetrahydropyrimidin-1(2H)-yl)-3-methylphenyl)piperidin-4-yl)methyl)piperidin-4-yl)-3-(hydroxymethyl)phenyl)amino)-3-(3-(3-methyl-2-oxoimidazolidin-1-yl)piperidin-1-yl)-1,2,4-triazin-6-carboxamide], less than 1 nM; for `Cc1cc(N2CCC(CN3CCC(c4ccc(Nc5nc(N6CCC[C@@H](N7CCN(C)C7=O)C6)nnc5C(N)=O)c(CO)c4)CC3)CC2)ccc1N1CCC(=O)NC1=O` [Compound 238, (R)-5-((4-(1-((1-(4-(2,4-dioxotetrahydropyrimidin-1(2H)-yl)-3-methylphenyl)piperidin-4-yl)methyl)piperidin-4-yl)-2-(hydroxymethyl)phenyl)amino)-3-(3-(3-methyl-2-oxoimidazolidin-1-yl)piperidin-1-yl)-1,2,4-triazin-6-carboxamide], less than 1 nM. For `Cc1cc(N2CC(CC(=O)N3CCC(c4ccc(Nc5nc(N6CCC[C@@H](N7CCN(C)C7=O)C6)nnc5C(N)=O)c(CO)c4)CC3)C2)ccc1N1CCC(=O)NC1=O` [Compound 239, (R)-5-((4-(1-(2-(1-(4-(2,4-dioxotetrahydropyrimidin-1(2H)-yl)-3-methylphenyl)azetidin-3-yl)acetyl)piperidin-4-yl)-2-(hydroxymethyl)phenyl)amino)-3-(3-(3-methyl-2-oxoimidazolidin-1-yl)piperidin-1-yl)-1,2,4-triazin-6-carboxamide] the value was less than 1 nM; for `CN1CCN([C@@H]2CCCN(c3nnc(C(N)=O)c(Nc4ccc(C5CCN(CC6CCN(c7ccc(N8CCC(=O)NC8=O)cc7)CC6)CC5)c(CO)c4)n3)C2)C1=O` [Compound 240, (R)-5-((4-(1-((1-(4-(2,4-dioxotetrahydropyrimidin-1(2H)-yl)phenyl)piperidin-4-yl)methyl)piperidin-4-yl)-3-(hydroxymethyl)phenyl)amino)-3-(3-(3-methyl-2-oxoimidazolidin-1-yl)piperidin-1-yl)-1,2,4-triazin-6-carboxamide], less than 1 nM.
